Reference: US6340654B1, “Freshness-retaining agent and method for agricultural/horticultural products” (priority 1999, dated 2002)

Tested on: fresh pieces of apple (variety: Mutsu)
Experiment: Ethylene concentration lowering effect for apple (ethylene in hermetically closed jar, tubular gas detector)
Conditions: 23° C.
[1] = Table 1, 20 g apple pieces in closed 150-mL jar, 3 g agent
[2] = Table 2, vs. mixing ratio, 3 g agent per 20 g apple
[3] = Table 9, single substances 3 g, mixtures 1.5 g + 1.5 g, 20 g apple
[4] = Table 10, vs. mixing ratio, 3 g agent per 20 g apple

Description: Mouths of those jars were then hermetically closed with “[sequence]” (trademark; product of American National Can Company). Those jars were left over at 23° C., and on DAY 1, DAY 3 and DAY 6, the concentrations of ethylene in the respective jars were measured by a tubular gas detector (manufactured by Gastec, Inc.). The concentration of ethylene in a jar with “KIMWIPE” alone hermetically placed therein was also measured as a control.
Mouths of those jars were then hermetically closed with “[sequence]”. Those jars were left over at 23° C., and on DAY 1, DAY 3 and DAY 6, the concentrations of ethylene in the respective jars were measured by the tubular gas detector (manufactured by Gastec, Inc.). The concentration of ethylene in a jar with “KIMWIPE” alone hermetically placed therein was also measured as a control.
In 150-mL jars with 20 g per jar of fresh pieces of apple (variety: Mutsu) placed therein, portions (0.5 to 3 g) of a freshness-retaining agent [cinnamic acid:sodium hydrogen-carbonate=1:2 (by weight)] according to the present invention—all of which were individually wrapped with “KIMWIPE” (trademark for laboratory paper produced by Jujo-Kimberly Co., Ltd.)—were placed, respectively. Mouths of those jars were then hermetically closed with “[sequence]”. Those jars were left over at 23° C., and on DAY 1 and DAY 3, the concentrations of ethylene in the respective jars were measured by the tubular gas detector (manufactured by Gastec, Inc.). The concentration of ethylene in a jar with “KIMWIPE” alone hermetically placed therein was also measured as a control.
In 150-mL jars with 20 g per jar of fresh pieces of apple (variety: Mutsu) placed therein, three freshness-retaining agents according to the present invention [1:3 (by molar ratio) mixtures of cinnamic acid and hydrogencarbonates]—all of which were individually wrapped with “KIMWIPE” (trademark for laboratory paper produced by Jujo-Kimberly Co., Ltd.)—were placed, respectively. Mouths of those jars were then hermetically closed with “[sequence]”. Those jars were left over at 23° C., and on DAY 1 and DAY 3, the concentrations of ethylene in the respective jars were measured by the tubular gas detector (manufactured by Gastec, Inc.). The concentration of ethylene in a jar with “KIMWIPE” alone hermetically placed therein was also measured as a control.
Mouths of those jars were then hermetically closed with “[sequence]”.

Compound | Concentration of ethylene DAY 1 [1] [ppm] | Concentration of ethylene DAY 2 (Table 1, DAY 2, 20 g apple pieces in closed 150-mL jar, 3 g agent) [ppm] | Concentration of ethylene DAY 6 [1] [ppm] | Concentration of ethylene DAY 1 [2] [ppm] | Concentration of ethylene DAY 3 [2] [ppm] | Concentration of ethylene DAY 6 [2] [ppm] | Concentration of ethylene DAY 1 [3] [ppm] | Concentration of ethylene DAY 3 [3] [ppm] | Concentration of ethylene DAY 1 [4] [ppm] | Concentration of ethylene DAY 3 [4] [ppm] | Concentration of ethylene DAY 6 [4] [ppm]
O=C(O)C=Cc1ccccc1 [Cinnamic acid, cinnamic acid] | 100 | 100 | 100 | 38 | 50 | 50 |  |  |  |  | 
O=C([O-])O.[Na+] [Sodium hydrogencarbonate, sodium hydrogencarbonate] |  |  |  | 50 | 75 | 125 | 275 | 150 | 275 | 150 | 150
O=C([O-])CC(O)(CC(=O)O)C(=O)O.[Na+] [Monosodium citrate, monosodium citrate] |  |  |  |  |  |  | 250 | 125 |  |  | 
O=C(O)CC(O)(CC(=O)O)C(=O)O [Citric acid, citric acid] |  |  |  |  |  |  | 275 | 125 |  |  | 
O=C([O-])CC(O)(CC(=O)[O-])C(=O)O.[Na+].[Na+] [Disodium citrate, disodium citrate] |  |  |  |  |  |  | 250 | 150 |  |  | 
